Columns and labels:
[1] = target: T1, Carboxypeptidase A1 (Bos taurus, UniProt P00730); test: Inhibition of bovine pancreatic carboxypeptidase A by microtiter plate method
T1 sequence (P00730 whole entry): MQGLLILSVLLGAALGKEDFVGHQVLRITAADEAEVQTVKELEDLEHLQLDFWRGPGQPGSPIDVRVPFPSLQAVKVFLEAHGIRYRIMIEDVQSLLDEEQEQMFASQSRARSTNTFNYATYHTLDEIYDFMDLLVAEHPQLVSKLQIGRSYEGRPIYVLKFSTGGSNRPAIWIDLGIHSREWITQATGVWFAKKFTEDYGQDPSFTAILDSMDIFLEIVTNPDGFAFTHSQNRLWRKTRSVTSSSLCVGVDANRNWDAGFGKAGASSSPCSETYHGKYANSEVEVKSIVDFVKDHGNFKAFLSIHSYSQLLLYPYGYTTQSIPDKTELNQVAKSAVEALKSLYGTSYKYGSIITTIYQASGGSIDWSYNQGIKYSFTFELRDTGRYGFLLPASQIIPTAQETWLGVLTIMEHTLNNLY

[2] = target: T2, Carboxypeptidase B (Homo sapiens, UniProt P15086); test: Inhibition of human recombinant carboxypeptidase B expressed in Saccharomyces cerevisiae by microtiter plate method
T2 sequence (P15086 whole entry): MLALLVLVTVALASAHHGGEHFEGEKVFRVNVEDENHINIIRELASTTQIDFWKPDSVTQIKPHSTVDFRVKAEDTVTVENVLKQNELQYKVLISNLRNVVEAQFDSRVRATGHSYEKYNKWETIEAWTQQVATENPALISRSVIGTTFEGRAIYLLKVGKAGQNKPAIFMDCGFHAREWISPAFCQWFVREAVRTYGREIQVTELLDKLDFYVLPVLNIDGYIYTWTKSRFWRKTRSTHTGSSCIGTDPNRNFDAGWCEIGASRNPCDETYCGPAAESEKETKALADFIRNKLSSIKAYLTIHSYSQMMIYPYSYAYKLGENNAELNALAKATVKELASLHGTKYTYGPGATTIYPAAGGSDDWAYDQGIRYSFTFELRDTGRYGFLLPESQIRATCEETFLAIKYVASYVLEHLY

Ki [1] | Ki [2] | SMILES
95 µM | 275 µM | COC(=O)[C@@H]1CC[C@@H]1NC(=O)[C@@H]1CC[C@@H]1NC(=O)OCc1ccccc1
550 µM | 500 µM | COC(=O)CNC(=O)[C@@H]1CC[C@@H]1NC(=O)OCc1ccccc1
72.5 µM | 410 µM | COC(=O)CCCCNC(=O)[C@H]1CC[C@H]1NC(=O)OCc1ccccc1
70 µM | 43 µM | O=C(O)CCNC(=O)[C@@H]1CC[C@@H]1NC(=O)OCc1ccccc1
67 µM | 70 µM | COC(=O)[C@H]1CC[C@H]1NC(=O)[C@H]1CC[C@H]1NC(=O)OCc1ccccc1
180 µM | 400 µM | COC(=O)CCNC(=O)[C@@H]1CC[C@@H]1NC(=O)OCc1ccccc1
